In ChEMBL document CHEMBL1133854, “Discovery and evaluation of piperidinyl carboxylic acid derivatives as potent alpha(4)beta(1) integrin antagonists” (Bioorg Med Chem Lett, 2001):

Tests used:
Integrin alpha-4/beta-1 [1] = target: T1, Integrin alpha-4/beta-1 (Homo sapiens, UniProt P05556+P13612); assay: Inhibition of VCAM-1 binding to integrin alpha4-beta1 in Jurkat cells at 10 uM; format: cell-based
Integrin alpha-4/beta-1 [2] = target: T1, Integrin alpha-4/beta-1; assay: Inhibition of VCAM-1 binding to integrin alpha4-beta1 of Jurkat cells; format: cell-based
[3] = Maximal concentration determined at a dose 10 mg/kg administered intraperitoneally to mice; format: ADME, organism-based; parameters: dose 10 mg/kg, route intraperitoneal; conditions: mouse, in vivo, ip
[4] = Half life (t1/2) determined at a dose 10 mg/kg administered intraperitoneally to mice; format: ADME, organism-based; parameters: dose 10 mg/kg, route intraperitoneal; conditions: mouse, in vivo, ip
[5] = Inhibition of VCAM-1 binding to integrin alpha9/beta1 in Jurkat cells; format: cell-based, Homo sapiens
[6] = Partition coefficient (logP); format: physicochemical; conditions: octanol/water
Integrin alpha-V/beta-3 = Integrin alpha-V/beta-3 (Homo sapiens, UniProt P05106+P06756); assay: Inhibition of VCAM-1 binding to integrin alphaV-beta3 in Jurkat cells; format: cell-based
[7] = Area under curve (AUC) determined at a dose 10 mg/kg administered intraperitoneally to mice; format: ADME, organism-based; parameters: dose 10 mg/kg, route intraperitoneal; conditions: mouse, in vivo, ip

T1 sequence (P05556 whole entry): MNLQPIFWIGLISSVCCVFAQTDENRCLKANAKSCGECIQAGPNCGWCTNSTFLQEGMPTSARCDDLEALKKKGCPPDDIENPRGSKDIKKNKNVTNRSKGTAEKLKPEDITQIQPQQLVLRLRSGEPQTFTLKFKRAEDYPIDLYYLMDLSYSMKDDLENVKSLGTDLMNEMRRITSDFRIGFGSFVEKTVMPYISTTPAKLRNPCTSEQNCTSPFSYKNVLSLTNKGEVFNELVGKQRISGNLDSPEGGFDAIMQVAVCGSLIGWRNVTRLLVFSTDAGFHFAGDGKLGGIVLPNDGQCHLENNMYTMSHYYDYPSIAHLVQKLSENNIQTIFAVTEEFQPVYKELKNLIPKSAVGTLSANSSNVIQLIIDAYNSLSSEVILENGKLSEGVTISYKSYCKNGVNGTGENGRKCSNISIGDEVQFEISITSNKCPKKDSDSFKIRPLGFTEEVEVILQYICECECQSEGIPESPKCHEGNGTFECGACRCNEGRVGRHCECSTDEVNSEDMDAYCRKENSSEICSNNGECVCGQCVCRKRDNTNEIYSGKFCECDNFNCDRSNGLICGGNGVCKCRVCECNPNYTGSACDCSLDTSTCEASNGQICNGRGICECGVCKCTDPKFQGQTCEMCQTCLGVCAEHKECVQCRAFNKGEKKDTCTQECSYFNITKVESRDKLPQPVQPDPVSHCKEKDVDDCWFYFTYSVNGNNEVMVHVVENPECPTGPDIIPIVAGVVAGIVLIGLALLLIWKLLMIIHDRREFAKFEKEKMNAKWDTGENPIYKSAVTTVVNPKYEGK
T1 sequence (P13612 whole entry): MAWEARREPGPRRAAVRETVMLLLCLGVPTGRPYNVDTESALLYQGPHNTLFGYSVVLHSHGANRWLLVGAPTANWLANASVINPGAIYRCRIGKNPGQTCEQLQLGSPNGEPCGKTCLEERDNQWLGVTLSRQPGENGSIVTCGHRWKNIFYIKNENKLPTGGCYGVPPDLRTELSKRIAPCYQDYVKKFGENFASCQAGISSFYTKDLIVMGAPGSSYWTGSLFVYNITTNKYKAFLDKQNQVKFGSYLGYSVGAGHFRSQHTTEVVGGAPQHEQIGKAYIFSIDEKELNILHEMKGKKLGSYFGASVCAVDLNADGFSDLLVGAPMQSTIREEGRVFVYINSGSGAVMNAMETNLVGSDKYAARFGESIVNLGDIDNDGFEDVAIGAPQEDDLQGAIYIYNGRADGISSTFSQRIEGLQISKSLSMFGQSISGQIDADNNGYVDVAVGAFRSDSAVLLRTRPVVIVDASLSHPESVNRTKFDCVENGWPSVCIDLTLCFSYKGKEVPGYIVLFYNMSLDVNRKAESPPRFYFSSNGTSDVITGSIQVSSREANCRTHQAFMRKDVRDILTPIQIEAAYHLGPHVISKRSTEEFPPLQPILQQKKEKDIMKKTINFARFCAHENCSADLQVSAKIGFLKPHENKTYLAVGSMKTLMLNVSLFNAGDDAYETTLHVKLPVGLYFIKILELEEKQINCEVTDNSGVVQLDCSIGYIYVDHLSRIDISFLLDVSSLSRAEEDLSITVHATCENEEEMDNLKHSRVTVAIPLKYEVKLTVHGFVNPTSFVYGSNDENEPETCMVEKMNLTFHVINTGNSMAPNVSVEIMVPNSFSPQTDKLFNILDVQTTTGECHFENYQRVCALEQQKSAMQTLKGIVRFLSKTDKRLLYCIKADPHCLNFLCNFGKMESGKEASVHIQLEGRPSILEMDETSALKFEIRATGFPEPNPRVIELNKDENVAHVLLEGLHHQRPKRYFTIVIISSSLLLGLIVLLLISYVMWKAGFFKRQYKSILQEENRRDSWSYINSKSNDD
Integrin alpha-V/beta-3, sequence (P05106 27-788 limits assumed): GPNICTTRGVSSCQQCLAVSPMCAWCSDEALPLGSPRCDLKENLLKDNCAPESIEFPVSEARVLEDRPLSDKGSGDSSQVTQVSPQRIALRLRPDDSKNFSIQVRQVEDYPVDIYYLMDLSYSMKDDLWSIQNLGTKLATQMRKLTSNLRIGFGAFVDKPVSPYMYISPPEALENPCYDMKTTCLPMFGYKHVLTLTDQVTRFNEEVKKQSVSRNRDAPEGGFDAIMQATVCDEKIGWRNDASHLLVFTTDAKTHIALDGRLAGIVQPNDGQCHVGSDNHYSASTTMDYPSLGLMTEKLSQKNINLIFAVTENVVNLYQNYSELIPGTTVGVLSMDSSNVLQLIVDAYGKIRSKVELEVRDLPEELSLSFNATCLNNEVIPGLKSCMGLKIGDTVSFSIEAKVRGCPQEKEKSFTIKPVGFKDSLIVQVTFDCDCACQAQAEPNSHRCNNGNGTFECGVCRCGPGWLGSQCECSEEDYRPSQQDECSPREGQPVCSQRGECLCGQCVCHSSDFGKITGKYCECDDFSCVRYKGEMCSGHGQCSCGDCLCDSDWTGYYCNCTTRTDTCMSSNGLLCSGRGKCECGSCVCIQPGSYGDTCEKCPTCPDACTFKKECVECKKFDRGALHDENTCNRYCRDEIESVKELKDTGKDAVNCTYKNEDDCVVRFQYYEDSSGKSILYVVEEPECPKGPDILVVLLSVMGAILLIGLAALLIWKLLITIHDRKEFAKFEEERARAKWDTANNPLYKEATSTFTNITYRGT
Integrin alpha-V/beta-3, sequence (P06756 31-889 limits assumed): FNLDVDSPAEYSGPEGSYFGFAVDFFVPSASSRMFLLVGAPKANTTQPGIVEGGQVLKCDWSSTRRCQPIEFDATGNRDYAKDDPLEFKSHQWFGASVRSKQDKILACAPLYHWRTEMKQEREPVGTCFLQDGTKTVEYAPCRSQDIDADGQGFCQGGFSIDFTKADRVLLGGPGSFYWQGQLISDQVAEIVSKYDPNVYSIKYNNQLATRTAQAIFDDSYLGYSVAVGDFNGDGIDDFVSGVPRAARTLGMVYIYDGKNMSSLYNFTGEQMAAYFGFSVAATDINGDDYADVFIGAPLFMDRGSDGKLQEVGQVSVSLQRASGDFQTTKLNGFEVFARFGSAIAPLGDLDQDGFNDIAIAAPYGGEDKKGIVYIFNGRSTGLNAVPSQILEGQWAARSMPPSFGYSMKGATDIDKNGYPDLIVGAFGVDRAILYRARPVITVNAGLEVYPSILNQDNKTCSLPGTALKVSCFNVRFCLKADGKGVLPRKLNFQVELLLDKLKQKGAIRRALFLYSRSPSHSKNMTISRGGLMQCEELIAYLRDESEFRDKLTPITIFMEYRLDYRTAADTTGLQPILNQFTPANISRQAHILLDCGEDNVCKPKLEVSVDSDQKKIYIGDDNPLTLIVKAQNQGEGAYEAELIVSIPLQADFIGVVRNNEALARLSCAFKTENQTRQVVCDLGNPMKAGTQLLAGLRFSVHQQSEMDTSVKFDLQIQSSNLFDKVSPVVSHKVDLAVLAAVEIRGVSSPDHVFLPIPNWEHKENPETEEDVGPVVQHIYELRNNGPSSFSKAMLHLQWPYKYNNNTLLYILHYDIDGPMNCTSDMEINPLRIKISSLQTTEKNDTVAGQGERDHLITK
Integrin alpha-V/beta-3, sequence (P06756 891-1048 limits assumed): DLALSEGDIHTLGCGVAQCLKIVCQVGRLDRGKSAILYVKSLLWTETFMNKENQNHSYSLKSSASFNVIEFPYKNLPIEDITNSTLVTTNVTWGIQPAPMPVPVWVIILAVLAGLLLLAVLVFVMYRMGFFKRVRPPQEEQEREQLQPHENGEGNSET

| Compound | inhibition (Integrin alpha-4/beta-1 [1]) [%] | IC50 (Integrin alpha-4/beta-1 [2]) [µM] | other results |
| --- | --- | --- | --- |
| Cc1ccccc1NC(=O)Nc1ccc(CC(=O)N[C@@H](CC(C)C)C(=O)N2CCCC(C(=O)O)C2)cc1 (stereo partly drawn) | 25 | > 10 |  |
| Cc1ccccc1NC(=O)Nc1ccc(CC(=O)N[C@@H](CC(C)C)C(=O)N2CCCC(CCC(=O)O)C2)cc1 (stereo partly drawn) | 77 | 6.74 |  |
| Cc1ccccc1NC(=O)Nc1ccc(CC(=O)N[C@@H](CC(C)C)C(=O)N2CCCC(CC(=O)O)C2)cc1 (stereo partly drawn) | 55 | 7.2 |  |
| Cc1ccccc1NC(=O)Nc1ccc(CC(=O)N[C@@H](CC(C)C)C(=O)N2CCC(C(=O)O)CC2)cc1 | 96 | 4.7 |  |
| Cc1ccccc1NC(=O)Nc1ccc(CC(=O)N[C@@H](CC(C)C)C(=O)N2CCCCC2CC(=O)O)cc1 (stereo partly drawn) | 100 | 0.3 | Cmax [3]: 1440 ng/mL; half-life [4]: 48 min; IC50 [5]: > 50 µM; logP [6]: 1.89; IC50 (Integrin alpha-V/beta-3): > 200 µM; AUC [7]: 955 ng·h/mL |
| Cc1ccccc1NC(=O)Nc1ccc(CC(=O)N[C@@H](CC(C)C)C(=O)N2CCCCC2C(=O)O)cc1 (stereo partly drawn) | 49 | 10 |  |
| Cc1ccccc1NC(=O)Nc1ccc(CC(=O)N[C@@H](CC(C)C)C(=O)N2CCCCC2C(C(=O)O)c2ccccc2)cc1 (stereo partly drawn) | 99 | 4.96 |  |
| Cc1ccccc1NC(=O)Nc1ccc(CC(=O)N[C@@H](CC(C)C)C(=O)N[C@H](C)CC(=O)O)cc1 |  |  | logP [6]: 1.72 |
| Cc1ccccc1NC(=O)Nc1ccc(CC(=O)N[C@@H](CC(C)C)C(=O)N2CCC(CC(=O)O)CC2)cc1 | 98 | 0.55 |  |
